Read-outs that look alike come from different tables or passages of the source.
Key:
[1] = biological target: AChE (Homo sapiens, UniProt P22303); experiment: Synergism of antipsychotics with donepezil/rivastigmine (binary mixtures), AChE; details: for CI (combination index), AChE: ComboSyn;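 for all read-outs here: antipsychotic concentration kept fixed across all measurements, selected from estimated therapeutic plasma levels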
Source text: (§6) In turn, the concentrations of antipsychotics were constant in every measurement, and were chosen on the basis of estimated therapeutic plasma concentrations.
(§7) Automatic simulation of synergism and antagonism at all doses or effect levels is possible by computer software, based on algorithms. Calculation of the combination index (CI) and isobologram analyses enable to quantitatively determine drug interactions, where CI < 1, =1 and >1 indicate synergism, additive effect and antagonism, respectively. […] The software also allowed us to display the dose–effect curve, the median–effect plot and the dose-reduction index (DRI) plot [36].

[2] = biological target: BuChE (Homo sapiens, UniProt P06276); experiment: Synergism of antipsychotics with donepezil/rivastigmine (binary mixtures), BuChE;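 note: combination index derived by median-effect analysis of combined drug effects on the cholinesterase, with values below 1 meaning synergism, exactly 1 additivity and above 1 antagonism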
Source text: as §6, §7

[3] = test system: HUVEC cells; experiment: WST-1 viability under AAPH-induced oxidative stress, HUVEC; assay type: cell-based, human; details: AAPH 17.5 mmol/L; for viability of HUVEC under AAPH: relative to pure medium control
Procedure: (§1) WST-1 assay (Takara, Takara Bio Europe, Saint-Germain-en-Laye, France) was used to assess the effects of antipsychotics on the growth of HUVEC and astrocytes. The experiments were conducted as described previously. HUVEC were seeded at a density of 7500 cells, and astrocytes at 5000 cells per well on 96-well microplates and cultured for 24 h followed by treatment with compounds at ½ × TPCmax and TPCmax or pure medium as a control (v = 100 μL) for another 24 h (37 °C, 5% CO2). Subsequently, the cells were washed with culture medium (100 μL) and WST-1 reagent diluted in medium (10 μL of reagent + 90 μL of medium) was added. The plates were incubated at 37 °C in 5% CO2 for another 90 min for HUVEC and 60 min for astrocytes. The absorbance was read at 450 nm using a microplate reader (iMARK, Bio-Rad, Hercules, CA, USA). The cells viability was expressed as a percentage of the control samples which constituted 100% viability.
(§2) Moreover, the WST-1 assay was used to evaluate potential protective effects of antipsychotics on the growth of HUVEC and astrocytes under conditions of AAPH-induced oxidative stress. The experimental conditions were the same as in viability studies. AA at the final concentration of 10 μg/mL was used as an antioxidant control. After reaching the confluence, the antipsychotics were added at concentrations equaling ½ × TPCmax and TPCmax. After 1 h incubation under standard conditions, 50 μL AAPH was added to the wells containing tested compounds or AA. The AAPH concentration was chosen on the basis of preliminary experiments—17.5 mmol/L in HUVEC experiments, and 15.0 mmol/L in the case of astrocytes.

[4] = test system: astrocytes; experiment: WST-1 viability under AAPH-induced oxidative stress, astrocytes; assay type: cell-based, human; details: for astrocyte viability compared with the control (pure AAPH): benperidol 5 and 10 μg/L, penfluridol 12.5 μg/L, pimozide 15 μg/L, promazine 25 and 50 μg/L
Procedure: as §1, §2

[5] = biological target: T1, recombinant human β-amyloid (1–42) (Homo sapiens, UniProt P05067); experiment: Beta-amyloid aggregation, Thioflavin T fluorescence; assay type: biochemical
T1 construct: recombinant human β-amyloid (1–42; ultrapure); purchased Sigma-Aldrich (St. Louis, MO, USA)
Procedure: Aβ42 peptide was dissolved in DMSO and left to hydrate for a few minutes. The solution was centrifuged at 10,000 rpm for 5 min at 4 °C to separate any precipitated material. The solution at a concentration of 220 μmol/L was stored in small aliquots at a temperature of −30 °C and before each experiment it was restored at 37 °C for 15 min. Test samples containing Aβ42 solution at the final concentration of 20 μmol/L was incubated with antipsychotics at concentrations equaling their TPC and 1/2 × TPC (v = 10 µL). The final volume of the test samples was 100 μL. The positive control constituted a sample of Aβ42 peptide, whereas the negative control contained tannic acid at the final concentrations of 0.1 µmol/L and 10 µmol/L. The fibrillation reaction was set up by addition of thioflavin ThT dye at a concentration of 5 µmol/L. The fluorescence intensity was measured at room temperature with Ex/Em = 440 nm/484 nm (Synergy H1; BioTek, Winooski, VT, USA). The measurements of fluorescence intensity expressed as relative fluorescence units (RFU) were taken at 10, 30, 60 and 90 min and then after 24 and 48 h. The fluorescence intensity measured for control equaled 100% of Aβ aggregation and it was used to estimate the inhibitory properties of the tested antipsychotics.

[6] = biological target: T2, human erythrocyte acetylcholinesterase (Homo sapiens, UniProt P22303); experiment: AChE inhibition, modified Ellman's method; assay type: biochemical
T2 construct: solution of hemolyzed erythrocytes diluted 400-fold; from tissue; host or cells: hemolyzed erythrocytes from blood of healthy human donors
Procedure: (§3) The activity of both cholinesterases (AChE and BuChE) were assessed spectrophotometrically according to the Ellman’s method with some modifications by Worek et al.. This test development included experimental determination of the optimal testing conditions. For all measurements, 37 °C was used as the best temperature for enzymatic determinations in material of human origin.
(§4) The solution of plasma 200-fold diluted with 0.9% NaCl and solution of hemolyzed erythrocytes diluted 400-fold with 0.9% were incubated (37 °C, 15 min) with 5 μL DTNB (0.01 mol/L) and 10 μL tested compound at a wider range of concentration than the therapeutic range in order to assess the overall effect of the compound on human esterases (AChE and BuChE). The controls without antipsychotics, containing only DTNB and diluted plasma or diluted solution of hemolyzed erythrocytes, were prepared. […] The final volume of a sample was 500 μL. […] The maximal velocity of the reaction was determined on the basis of changes in absorbance over time.
(§5) AChE SI (selectivity index) was calculated by using the following formula: SI = IC50 of BuChE/IC50 of AChE. However, BuChE SI was defined as IC50 of AChE/IC50 of BuChE. Maximal velocity (Vmax) and the Michaelis constant (Km) were calculated with the use of linear regression—according to the Hanes–Woolf plot.

[7] = biological target: T3, human plasma butyrylcholinesterase (Homo sapiens, UniProt P06276); experiment: BuChE inhibition, modified Ellman's method; assay type: biochemical
T3 construct: The solution of plasma 200-fold diluted with 0.9% NaCl; from tissue; host or cells: citrated plasma from blood of healthy human donors
Procedure: as §3, §4, §5

[8] = donepezil 0.005 μmol/L + antipsychotic at TPCmax, CI < 1 synergism, > 1 antagonism
[9] = donepezil 0.01 μmol/L + antipsychotic at TPCmax
[10] = donepezil 0.02 μmol/L + antipsychotic at TPCmax
[11] = donepezil 0.05 μmol/L + antipsychotic at TPCmax
[12] = donepezil 0.1 μmol/L + antipsychotic at TPCmax
[13] = rivastigmine 5 μmol/L + antipsychotic at TPCmax
[14] = rivastigmine 10 μmol/L + antipsychotic at TPCmax
[15] = rivastigmine 15 μmol/L + antipsychotic at TPCmax
[16] = rivastigmine 25 μmol/L + antipsychotic at TPCmax
[17] = rivastigmine 40 μmol/L + antipsychotic at TPCmax
[18] = rivastigmine 50 μmol/L + antipsychotic at TPCmax
[19] = rivastigmine 75 μmol/L + antipsychotic at TPCmax
[20] = rivastigmine 100 μmol/L + antipsychotic at TPCmax
[21] = donepezil 2 μmol/L + antipsychotic at TPCmax, ComboSyn
[22] = donepezil 5 μmol/L + antipsychotic at TPCmax, ComboSyn
[23] = donepezil 10 μmol/L + antipsychotic at TPCmax, ComboSyn
[24] = donepezil 20 μmol/L + antipsychotic at TPCmax, ComboSyn
[25] = donepezil 50 μmol/L + antipsychotic at TPCmax, ComboSyn
[26] = donepezil 100 μmol/L + antipsychotic at TPCmax, ComboSyn
[27] = rivastigmine 0.05 μmol/L + antipsychotic at TPCmax, ComboSyn
[28] = rivastigmine 0.1 μmol/L + antipsychotic at TPCmax, ComboSyn
[29] = rivastigmine 0.25 μmol/L + antipsychotic at TPCmax, ComboSyn
[30] = rivastigmine 0.5 μmol/L + antipsychotic at TPCmax, ComboSyn
[31] = rivastigmine 0.75 μmol/L + antipsychotic at TPCmax, ComboSyn
[32] = rivastigmine 1 μmol/L + antipsychotic at TPCmax, ComboSyn
[33] = rivastigmine 2.5 μmol/L + antipsychotic at TPCmax, ComboSyn
[34] = rivastigmine 5 μmol/L + antipsychotic at TPCmax, ComboSyn
[35] = TPC (bromperidol 25 μg/L, quetiapine 400 μg/L)
[36] = ½ × TPC (bromperidol 12.5 μg/L, quetiapine 200 μg/L)

Chain of AChE (P22303 32-617 isoform P22303-2 limits assumed): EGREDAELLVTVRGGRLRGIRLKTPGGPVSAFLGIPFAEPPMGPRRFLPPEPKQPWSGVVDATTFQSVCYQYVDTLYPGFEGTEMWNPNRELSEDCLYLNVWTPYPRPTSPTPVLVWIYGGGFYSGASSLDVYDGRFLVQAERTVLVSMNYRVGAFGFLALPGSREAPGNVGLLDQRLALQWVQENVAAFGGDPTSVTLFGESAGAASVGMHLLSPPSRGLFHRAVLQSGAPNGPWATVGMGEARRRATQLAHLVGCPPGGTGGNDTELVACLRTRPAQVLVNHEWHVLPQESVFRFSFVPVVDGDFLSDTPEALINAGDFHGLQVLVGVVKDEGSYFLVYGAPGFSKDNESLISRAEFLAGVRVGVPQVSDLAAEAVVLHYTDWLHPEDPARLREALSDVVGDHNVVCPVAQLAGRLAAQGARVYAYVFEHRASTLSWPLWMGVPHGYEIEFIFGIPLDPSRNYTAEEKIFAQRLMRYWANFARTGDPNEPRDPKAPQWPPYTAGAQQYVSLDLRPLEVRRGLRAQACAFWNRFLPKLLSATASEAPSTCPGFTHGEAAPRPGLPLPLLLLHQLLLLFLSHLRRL
T2 sequence (P22303 32-617 isoform P22303-2 limits assumed): as above
T3 sequence (P06276 29-602): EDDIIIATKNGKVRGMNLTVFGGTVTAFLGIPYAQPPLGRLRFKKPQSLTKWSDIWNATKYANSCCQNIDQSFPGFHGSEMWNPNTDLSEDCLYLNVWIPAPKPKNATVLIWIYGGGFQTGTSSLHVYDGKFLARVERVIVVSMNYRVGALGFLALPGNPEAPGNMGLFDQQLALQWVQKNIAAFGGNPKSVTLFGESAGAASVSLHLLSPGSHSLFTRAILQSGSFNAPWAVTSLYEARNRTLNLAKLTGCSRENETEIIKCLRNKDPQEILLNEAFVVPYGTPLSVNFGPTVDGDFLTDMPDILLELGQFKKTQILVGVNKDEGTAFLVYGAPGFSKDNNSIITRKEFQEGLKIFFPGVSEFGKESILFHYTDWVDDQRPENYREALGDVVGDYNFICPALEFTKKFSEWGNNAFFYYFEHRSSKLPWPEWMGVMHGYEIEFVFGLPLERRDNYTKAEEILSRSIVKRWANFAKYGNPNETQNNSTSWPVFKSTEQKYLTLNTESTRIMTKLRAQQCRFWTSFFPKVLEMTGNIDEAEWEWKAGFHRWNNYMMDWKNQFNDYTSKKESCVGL
Chain of BuChE (P06276 29-602): as above
T1 sequence (P05067 672-713 limits assumed): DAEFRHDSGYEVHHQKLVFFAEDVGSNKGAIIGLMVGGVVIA

Compound	CI (combination index), AChE [1, 8]	CI (combination index), AChE [1, 9]	CI (combination index), AChE [1, 10]	CI (combination index), AChE [1, 11]	CI (combination index), AChE [1, 12]	CI (combination index), AChE [1, 13]	CI (combination index), AChE [1, 14]	CI (combination index), AChE [1, 15]	CI (combination index), AChE [1, 16]	CI (combination index), AChE [1, 17]	CI (combination index), AChE [1, 19]	CI (combination index), AChE [1, 20]	CI (combination index), BuChE [2, 21]	CI (combination index), BuChE [2, 22]	CI (combination index), BuChE [2, 23]	CI (combination index), BuChE [2, 24]	CI (combination index), BuChE [2, 25]	CI (combination index), BuChE [2, 26]	CI (combination index), BuChE [2, 27]	CI (combination index), BuChE [2, 28]	further results
O=c1[nH]c2ccccc2n1C1CCN(CCCC(c2ccc(F)cc2)c2ccc(F)cc2)CC1 [Pimozide, pimozide]	0.50	0.63	0.62	0.65	0.68	0.26	0.37	0.38	0.47	0.56	0.62	0.65	0.57	0.55	0.78	0.76	0.91	0.79	> 2.50	> 2.50	CI (combination index), AChE [1, 18]: 0.57; CI (combination index), BuChE [2, 29]: > 2.50; CI (combination index), BuChE [2, 30]: > 2.50; CI (combination index), BuChE [2, 31]: > 2.50; CI (combination index), BuChE [2, 32]: > 2.50; CI (combination index), BuChE [2, 33]: > 2.50; CI (combination index), BuChE [2, 34]: > 2.50; CI (combination index), BuChE ([2]; rivastigmine (0.05–5 µmol/L) / pimozide at TPCmax, beyond the scale of Figure 5B): above 2.5; viability of HUVEC under AAPH [3, 35]: 65.2%; viability of HUVEC under AAPH [3, 36]: 64.2%; astrocyte viability compared with the control (pure AAPH) [4]: statistically significant increase; effect on Aβ aggregation after a longer incubation time ([5]; 24 and 48 h, both tested concentrations): substantially inhibit; AChE reaction velocity ([6]; 25 µg/L, control 0.263 ± 0.011 A/min): 0.253 ± 0.012 A/min; AChE reaction velocity ([6]; 100 µg/L, control 0.263 ± 0.011 A/min): 0.248 ± 0.009 A/min
O=C(CCCN1CCC(O)(c2ccc(Cl)cc2)CC1)c1ccc(F)cc1 [Haloperidol, haloperidol]	> 2.50	> 2.50	> 2.50	0.37	0.09	0.39	0.55	0.60	0.70	0.71	0.86	0.82	0.71	0.67	0.79	0.77	0.84	0.87	0.61	0.44	CI (combination index), AChE [1, 18]: 0.79; CI (combination index), BuChE [2, 29]: 0.67; CI (combination index), BuChE [2, 30]: 0.87; CI (combination index), BuChE [2, 31]: 1.06; CI (combination index), BuChE [2, 32]: 1.03; CI (combination index), BuChE [2, 33]: 1.19; CI (combination index), BuChE [2, 34]: 1.22; effect on Aβ aggregation within 90 min of incubation ([5]; both tested concentrations (½ TPC and TPC)): ceases to significantly inhibit; effect on AChE activity ([6]; therapeutic concentrations): do not affect; decrease of BuChE activity ([7]; 100 µg/L): 9.6 ± 2.3%; BuChE reaction velocity ([7]; 100 µg/L, control 0.252 ± 0.022 A/min): 0.228 ± 0.021 A/min; effect on BuChE activity ([7]; therapeutic concentrations): do not affect
O=C1O[C@H]([C@@H](O)CO)C(O)=C1O [AA, ascorbic acid]	–	–	–	–	–	–	–	–	–	–	–	–	–	–	–	–	–	–	–	–	viability at 10 µg/mL ([3]; Homo sapiens, HUVEC, 10 μg/mL): 81 ± 3.4%; viability at 10 µg/mL ([4]; Homo sapiens, Astrocyte, 10 μg/mL, AAPH 15 mmol/L): 72.9%
OC1(c2ccc(Cl)c(C(F)(F)F)c2)CCN(CCCC(c2ccc(F)cc2)c2ccc(F)cc2)CC1 [Penfluridol, penfluridol]	0.79	0.80	0.93	0.89	0.90	> 2.50	0.75	0.73	0.92	0.97	1.06	1.06	1.21	0.98	1.04	1.03	1.14	1.21	0.64	0.68	Effect on IC50 AChE of rivastigmine ([1]; binary mixture vs pure rivastigmine ([…]), ↓ lower, ↑ higher IC50, - no change): does not affect; CI (combination index), BuChE [2, 29]: 0.79; CI (combination index), BuChE [2, 30]: 1.01; CI (combination index), BuChE [2, 31]: 1.08; CI (combination index), BuChE [2, 32]: 1.13; CI (combination index), BuChE [2, 33]: 1.28; CI (combination index), BuChE [2, 34]: 1.17; viability of HUVEC under AAPH [3, 35]: 82.9%; viability of HUVEC under AAPH [3, 36]: 80.5%; astrocyte viability compared with the control (pure AAPH) [4]: statistically significant increase; effect on Aβ aggregation within 10–90 min ([5]; 25 µg/L, at any of these time points): does not inhibit; AChE reaction velocity [6]: 0.226 ± 0.012 A/min
